Results from patent US20220047603A1, “SUBSTITUTED PYRROLOPYRIDINE-DERIVATIVES” (BAYER AKTIENGESELLSCHAFT, priority 2018, published 2022).

What was measured:
human TBK1 = target: T1, human TBK1 (Homo sapiens, UniProt Q9UHD2); assay: TBK1 high ATP kinase assay (TR-FRET); type: biochemical; conditions: 1 mM ATP, selectivity assay, 15 min preincubation
T1 construct: Recombinant full-length N-terminally His-tagged human TBK1; His (N); purchased Life Technologies PR5618B; host or cells: insect cells
T1 sequence (Q9UHD2 1-729): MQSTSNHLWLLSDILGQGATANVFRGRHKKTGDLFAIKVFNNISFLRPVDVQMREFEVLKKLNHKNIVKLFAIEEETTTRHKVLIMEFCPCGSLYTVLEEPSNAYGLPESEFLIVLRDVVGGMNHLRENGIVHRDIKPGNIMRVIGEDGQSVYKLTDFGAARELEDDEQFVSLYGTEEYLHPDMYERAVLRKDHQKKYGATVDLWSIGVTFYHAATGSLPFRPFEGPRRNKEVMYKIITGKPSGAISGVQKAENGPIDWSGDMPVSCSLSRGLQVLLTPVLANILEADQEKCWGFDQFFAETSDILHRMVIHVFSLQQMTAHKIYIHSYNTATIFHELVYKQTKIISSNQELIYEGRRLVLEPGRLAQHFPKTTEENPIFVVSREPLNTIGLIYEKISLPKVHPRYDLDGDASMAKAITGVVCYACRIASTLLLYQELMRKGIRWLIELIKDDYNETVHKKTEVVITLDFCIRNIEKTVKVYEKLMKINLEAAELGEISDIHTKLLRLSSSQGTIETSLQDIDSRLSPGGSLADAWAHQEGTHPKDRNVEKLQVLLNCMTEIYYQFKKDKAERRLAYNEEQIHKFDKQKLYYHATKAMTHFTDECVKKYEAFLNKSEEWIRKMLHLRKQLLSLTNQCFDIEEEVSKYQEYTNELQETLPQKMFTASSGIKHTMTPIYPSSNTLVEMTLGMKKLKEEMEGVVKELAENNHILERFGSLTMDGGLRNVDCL
Method: TBK1 High ATP Kinase Assay
TBK1-inhibitory activity of compounds of the present invention at a high ATP concentration after preincubation of enzyme and test compounds was quantified employing the TR-FRET-based TBK1 assay as described in the following paragraphs.
Recombinant full-length N-terminally His-tagged human TBK1, expressed in insect cells and purified by Ni-NTA affinity chromatography, was purchased from Life Technologies (Cat. No PR5618B) and used as enzyme. As substrate for the kinase reaction biotinylated peptide biotin-Ahx-[…] (C-terminus in amide form) was used which can be purchased e.g. form the company Biosyntan (Berlin-Buch, Germany).
The concentration of TBK1 was adjusted depending of the activity of the enzyme lot and was chosen appropriate to have the assay in the linear range, typical concentrations were in the range of 0.002-0.004 μg/mL. The reaction was stopped by the addition of 3 μL of a solution of TR-FRET detection reagents (0.33 μM streptavidine-XL665 [Cisbio Bioassays, Codolet, France], 2.5 nM anti-phosho-Serine antibody [Merck Millipore, “STK antibody”, cat. #35-002] and 1.25 nM LANCE EU-W1024 labeled anti-mouse IgG antibody [Perkin-Elmer, product no. AD0077]) in an aqueous EDTA-solution (167 mM EDTA, 0.13% (w/v) bovine serum albumin in 100 mM HEPES/NaOH pH 7.5).

human ROCK-II = target: T2, human ROCK-II (Homo sapiens, UniProt O75116); assay: ROCK-II kinase assay (ADP-Glo); type: biochemical; conditions: 10 μM ATP, 15 min preincubation, 30 min at 22° C.
T2 construct: human ROCK-II (amino acids 11-552); His6 (N); purchased Eurofins 14-451-K; host or cells: baculovirus infected SF21 insect cells
T2 sequence (O75116 11-552): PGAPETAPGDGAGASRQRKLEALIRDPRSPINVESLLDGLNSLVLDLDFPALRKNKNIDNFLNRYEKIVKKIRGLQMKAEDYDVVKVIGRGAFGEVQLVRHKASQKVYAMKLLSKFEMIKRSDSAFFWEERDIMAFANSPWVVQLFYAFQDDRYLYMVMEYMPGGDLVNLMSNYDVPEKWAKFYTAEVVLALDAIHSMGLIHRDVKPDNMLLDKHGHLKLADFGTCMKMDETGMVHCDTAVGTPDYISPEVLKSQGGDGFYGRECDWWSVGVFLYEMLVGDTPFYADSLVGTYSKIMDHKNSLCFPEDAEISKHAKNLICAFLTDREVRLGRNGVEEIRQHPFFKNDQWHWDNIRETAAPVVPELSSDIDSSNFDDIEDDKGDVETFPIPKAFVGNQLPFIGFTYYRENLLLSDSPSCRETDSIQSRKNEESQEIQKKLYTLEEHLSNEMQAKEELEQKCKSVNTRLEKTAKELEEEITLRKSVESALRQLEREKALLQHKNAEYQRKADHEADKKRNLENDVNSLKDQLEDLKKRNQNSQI
Method: ROCK-II-inhibitory activity of compounds of the present invention was quantified employing the ROCK-II assay as described in the following paragraphs. In essence, the enzyme activity is measured by quantification of the adenosine-di-phosphate (ADP), which is generated as a co-product of the enzyme reaction, via the “ADP-Glo™ Kinase Assay” kit from the company Promega. This detection system works as follows: In a first step the adenosine-tri-phosphate (ATP) not consumed in the kinase reaction is quantitatively converted to cAMP employing an adenylate cyclase (“ADP-Glo-reagent”), then the adenylate cyclase is stopped and the ADP generated in the kinase reaction converted to ATP which generates in a luciferase-based reaction a glow-luminescence signal (“Kinase Detection Reagent”).
As substrate for the kinase reaction the biotinylated peptide biotin-Ahx-[…] (C-terminus in amide form) was used which can be purchased e.g. from the company Biosyntan (Berlin-Buch, Germany).
The concentration of ROCK-II was adjusted depending of the activity of the enzyme lot and was chosen appropriate to have the assay in the linear range, a typical concentration is about 5 nM. The reaction was stopped by the addition of 2.5 μl of “ADP-Glo-reagent” (1:1, 5 fold diluted) and the resulting mixture was incubated at 22° C. for 1 h to convert the ATP not consumed in the kinase reaction completely to cAMP. […] The amount of emitted light was taken as a measure for the amount of ADP generated and thereby for the activity of the ROCK-II.

MAP4K1 = MAP4K1 (Homo sapiens, UniProt Q92918); assay: MAP4K1 binding competition assay (TR-FRET, Tracer 222)
Sequence of MAP4K1 (Q92918 whole entry): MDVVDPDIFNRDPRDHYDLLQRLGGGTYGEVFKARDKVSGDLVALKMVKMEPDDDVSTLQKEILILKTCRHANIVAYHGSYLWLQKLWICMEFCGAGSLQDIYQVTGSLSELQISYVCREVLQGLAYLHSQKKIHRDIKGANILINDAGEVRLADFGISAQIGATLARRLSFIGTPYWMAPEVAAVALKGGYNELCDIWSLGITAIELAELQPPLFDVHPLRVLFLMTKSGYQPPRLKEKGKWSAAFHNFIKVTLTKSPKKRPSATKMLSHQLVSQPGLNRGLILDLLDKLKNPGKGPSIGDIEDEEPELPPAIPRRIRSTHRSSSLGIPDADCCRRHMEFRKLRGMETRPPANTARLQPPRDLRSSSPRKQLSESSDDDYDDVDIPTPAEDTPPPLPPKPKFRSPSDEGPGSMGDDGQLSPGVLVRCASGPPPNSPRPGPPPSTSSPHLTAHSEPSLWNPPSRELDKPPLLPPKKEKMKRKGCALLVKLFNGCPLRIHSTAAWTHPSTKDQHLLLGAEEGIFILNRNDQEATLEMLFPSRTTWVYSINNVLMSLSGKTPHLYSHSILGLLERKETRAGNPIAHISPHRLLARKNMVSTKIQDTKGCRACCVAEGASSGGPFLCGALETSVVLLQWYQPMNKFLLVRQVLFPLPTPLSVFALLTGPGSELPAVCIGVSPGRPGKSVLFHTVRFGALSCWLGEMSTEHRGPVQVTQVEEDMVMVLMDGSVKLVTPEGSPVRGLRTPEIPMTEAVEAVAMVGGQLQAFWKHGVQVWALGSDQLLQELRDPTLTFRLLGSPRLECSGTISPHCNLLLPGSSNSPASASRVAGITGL

Row | SMILES | IC50 (human TBK1) [nM] | IC50 (human ROCK-II) [nM] | IC50 (MAP4K1) [nM]
1 | Fc1cc(NC2=NCC3(CCOC3)CO2)cc(F)c1Oc1ccnc2[nH]cc(C3(C(F)(F)F)CC3)c12 (racemic) [Example 5, (+/−)-N-[3,5-difluoro-4-({3-[1-(trifluoromethyl)cyclopropyl]-1H-pyrrolo[2,3-b]pyridin-4-yl}oxy)phenyl]-2,7-dioxa-9-azaspiro[4.5]dec-8-en-8-amine] | > 20000 | – | –
2 | Fc1cc(NC2=NCC3(CCOC3)CO2)cc(F)c1Oc1ccnc2[nH]cc(C3(C(F)(F)F)CCC3)c12 (racemic) [Example 13, (+/−)-N-[3,5-difluoro-4-({3-[1-(trifluoromethyl)cyclobutyl]-1H-pyrrolo[2,3-b]pyridin-4-yl}oxy)phenyl]-2,7-dioxa-9-azaspiro[4.5]dec-8-en-8-amine] | > 20000 | 1200 | 6.2
3 | Fc1cc(NC2=NCC3(CCOC3)CO2)cc(F)c1Oc1ccnc2[nH]cc(C3(C(F)(F)F)CC3)c12 (single isomer, unassigned; enantiomer 1) [Example 6, N-[3,5-difluoro-4-({3-[1-(trifluoromethyl)cyclopropyl]-1H-pyrrolo[2,3-b]pyridin-4-yl}oxy)phenyl]-2,7-dioxa-9-azaspiro[4.5]dec-8-en-8-amine (single enantiomer 1)] | > 20000 | – | –
4 | Fc1cc(NC2=NCC3(CC3)CO2)cc(F)c1Oc1ccnc2[nH]cc(C3(C(F)(F)F)CCC3)c12 [Example 3, N-[3,5-difluoro-4-({3-[1-(trifluoromethyl)cyclobutyl]-1H-pyrrolo[2,3-b]pyridin-4-yl}oxy)phenyl]-5-oxa-7-azaspiro[2.5]oct-6-en-6-amine] | > 20000 | 1600 | 4
5 | CC1(C)CN=C(Nc2cc(F)c(Oc3ccnc4[nH]cc(C5(C(F)(F)F)CCC5)c34)c(F)c2)OC1 [Example 4, N-[3,5-difluoro-4-({3-[1-(trifluoromethyl)cyclobutyl]-1H-pyrrolo[2,3-b]pyridin-4-yl}oxy)phenyl]-5,5-dimethyl-5,6-dihydro-4H-1,3-oxazin-2-amine] | > 20000 | 4100 | 6.2
6 | Fc1cc(NC2=NCC3(COC3)CO2)cc(F)c1Oc1ccnc2[nH]cc(C3(C(F)(F)F)CC3)c12 [Example 8, N-[3,5-difluoro-4-({3-[1-(trifluoromethyl)cyclopropyl]-1H-pyrrolo[2,3-b]pyridin-4-yl}oxy)phenyl]-2,6-dioxa-8-azaspiro[3.5]non-7-en-7-amine] | > 20000 | 500 | 5
7 | Fc1cc(NC2=NCC3(CCC3)CO2)cc(F)c1Oc1ccnc2[nH]cc(C3(C(F)(F)F)CC3)c12 [Example 12, N-[3,5-difluoro-4-({3-[1-(trifluoromethyl)cyclopropyl]-1H-pyrrolo[2,3-b]pyridin-4-yl}oxy)phenyl]-6-oxa-8-azaspiro[3.5]non-7-en-7-amine] | > 20000 | – | –
8 | Fc1cc(NC2=NCC3(COC3)CO2)cc(F)c1Oc1ccnc2[nH]cc(C3(C(F)(F)F)CCC3)c12 [Example 14, N-[3,5-difluoro-4-({3-[1-(trifluoromethyl)cyclobutyl]-1H-pyrrolo[2,3-b]pyridin-4-yl}oxy)phenyl]-2,6-dioxa-8-azaspiro[3.5]non-7-en-7-amine] | > 20000 | 1300 | 6.9

Other lines, results leading:

Row | IC50 (human TBK1) [nM] | IC50 (human ROCK-II) [nM] | IC50 (MAP4K1) [nM] | SMILES
9 | > 20000 | – | – | Fc1cc(NC2=NCC3(CCOC3)CO2)cc(F)c1Oc1ccnc2[nH]cc(C3(C(F)(F)F)CC3)c12 (single isomer, unassigned; enantiomer 2) [Example 7, N-[3,5-difluoro-4-({3-[1-(trifluoromethyl)cyclopropyl]-1H-pyrrolo[2,3-b]pyridin-4-yl}oxy)phenyl]-2,7-dioxa-9-azaspiro[4.5]dec-8-en-8-amine (single enantiomer 2)]
10 | > 20000 | 5600 | 8.5 | Fc1cc(NC2=NCC3(CCC3)CO2)cc(F)c1Oc1ccnc2[nH]cc(C3(C(F)(F)F)CCC3)c12 [Example 1, N-[3,5-difluoro-4-({3-[1-(trifluoromethyl)cyclobutyl]-1H-pyrrolo[2,3-b]pyridin-4-yl}oxy)phenyl]-6-oxa-8-azaspiro[3.5]non-7-en-7-amine]
11 | > 20000 | 1900 | 4.2 | Fc1cc(NC2=NCC3(CCOCC3)CO2)cc(F)c1Oc1ccnc2[nH]cc(C3(C(F)(F)F)CCC3)c12 [Example 2, N-[3,5-difluoro-4-({3-[1-(trifluoromethyl)cyclobutyl]-1H-pyrrolo[2,3-b]pyridin-4-yl}oxy)phenyl]-2,9-dioxa-4-azaspiro[5.5]undec-3-en-3-amine]
12 | > 20000 | – | – | CC1(C)CN=C(Nc2cc(F)c(Oc3ccnc4[nH]cc(C5(C(F)(F)F)CC5)c34)c(F)c2)OC1 [Example 9, N-[3,5-difluoro-4-({3-[1-(trifluoromethyl)cyclopropyl]-1H-pyrrolo[2,3-b]pyridin-4-yl}oxy)phenyl]-5,5-dimethyl-5,6-dihydro-4H-1,3-oxazin-2-amine]
13 | > 20000 | – | – | Fc1cc(NC2=NCC3(CC3)CO2)cc(F)c1Oc1ccnc2[nH]cc(C3(C(F)(F)F)CC3)c12 [Example 10, N-[3,5-difluoro-4-({3-[1-(trifluoromethyl)cyclopropyl]-1H-pyrrolo[2,3-b]pyridin-4-yl}oxy)phenyl]-5-oxa-7-azaspiro[2.5]oct-6-en-6-amine]
14 | > 20000 | – | – | Fc1cc(NC2=NCC3(CCOCC3)CO2)cc(F)c1Oc1ccnc2[nH]cc(C3(C(F)(F)F)CC3)c12 [Example 11, N-[3,5-difluoro-4-({3-[1-(trifluoromethyl)cyclopropyl]-1H-pyrrolo[2,3-b]pyridin-4-yl}oxy)phenyl]-2,9-dioxa-4-azaspiro[5.5]undec-3-en-3-amine]
